Type in all cases: cell-based
Test [1] concerns mdx murine muscle tissue (mBAM). Description: MFAS maximal tetanic force of mBAMs from mdx mouse muscle cells. Conditions: low concentrations experiment, four days of exposure, FIG. 4A. From the text: (§1) Conditionally immortalized skeletal muscle cells from the mdx mouse muscle (Morgan et al., Dev Biol. 162: 486-498, 1994) were tissue engineered into contractile muscle tissue (mBAMs), as described herein. (See also, e.g., Vandenburgh et al., Muscle and Nerve 37: 438-447, 2008; Vandenburgh et al., Treat NMD Meeting, 2009). Briefly, several hundred thousand proliferating myoblasts were mixed with a solution of extracellular matrix (collagen or fibrin) and pipetted into custom wells containing two flexible “posts” (FIG. 1A). The cell/matrix mixture gelled around the tops of the posts, forming a defined tubular structure (FIG. 1B). […] Maximal tetanic force (i.e., muscle strength) was measured by imaging the deflection of the attachment posts and converting the distance of deflection into force, as illustrated in FIGS. 2A-2B.
(§2) High glucose tissue culture medium (4.5 g/l) was used in all experiments to maintain glucose levels well above normal human blood plasma levels (0.9 to 1.8 g/l) and, thereby, minimize drug action through increased glucose availability to the muscle cells. Varying concentrations of metformin (Sigma-Aldrich Cat. No. D15,095-9; 1,1-dimethylbiguanide hydrochloride) were added to tissue culture medium of mBAMs when the mBAMs had reached a plateau of maximal tetanic force, which was measured in a MyoForce Analysis System (MFAS™) 24 hours later. […]

Test [2] relates to normal mouse skeletal muscle tissue (mBAM). Put plainly: MFAS tetanic force of mBAMs from normal mouse leg muscle cells. The procedure:
(§3) High glucose tissue culture medium (4.5 g/l) was used in all experiments to maintain glucose levels well above normal human blood plasma levels (0.9 to 1.8 g/l) and, thereby, minimize drug action through increased glucose availability to the muscle cells. Varying concentrations of metformin (Sigma-Aldrich Cat. No. D15,095-9; 1,1-dimethylbiguanide hydrochloride) were added to tissue culture medium of mBAMs when the mBAMs had reached a plateau of maximal tetanic force, which was measured in a MyoForce Analysis System (MFAS™) 24 hours later. Every 24 hours, fresh metformin was added to fresh tissue culture medium, and tetanic forces were measured every 24 hours for 3-4 days. Fatigue was assayed after 3-4 days of metformin treatment by 15-20 repetitive tetanic stimulations of each mBAM at 14V, 60 Hz for 2 seconds every 4-5 seconds. Force is determined after each stimulation and compared to the initial force determined after the first stimulation relative to untreated controls. (Mean±S.E.M. of 3-8 samples per group was calculated and statistical analyses performed by t-tests.)
High glucose tissue culture medium (4.5 g/l) was used in all experiments to maintain glucose levels well above normal human blood plasma levels (0.9 to 1.8 g/l) and, thereby, minimize drug action through increased glucose availability to the muscle cells.

In test [3] the test system is human Duchenne muscular dystrophy (DMD) muscle tissue (mBAM). Put plainly: MFAS fatigue assay of human DMD mBAMs. Conditions: low concentrations, FIGS. 10A-10C. The procedure:
as §3
The immortalized muscle cells were tissue engineered into contractile muscle tissue (mBAMs), and muscle force and fatigue were measured as described above. High glucose tissue culture medium (4.5 g/l) was used to maintain glucose levels well above normal human blood plasma levels (0.9 to 1.8 g/l) and, thereby, minimize drug action through increased glucose availability to the muscle cells. […] Every 24 hours, fresh biguanide was added in fresh medium and tetanic force measured for a total of 3-4 days.

Test [4] deals with mdx murine skeletal muscle tissue (mBAM). Description: MFAS fatigue assay (repetitive tetanic stimulation) of mdx mouse mBAMs. Conditions: repetitive tetanic stimulation after 3-4 days of treatment, FIG. 4B.
Source text: as §1, §2

Test [5] relates to normal human muscle tissue (mBAM). Put plainly: MFAS tetanic force of mBAMs from normal human vastus lateralis muscle cells. The note with it: 3-4 days of exposure, FIGS. 7A-7D. The procedure:
as §3

Test [6] deals with human Duchenne muscular dystrophy (DMD) muscle tissue (mBAM). Put plainly: MFAS tetanic force of mBAMs from immortalized Duchenne muscular dystrophy muscle cells. Conditions: 3-4 days of exposure, FIGS. 9A, 9B, 9D. The procedure: as §3
The immortalized muscle cells were tissue engineered into contractile muscle tissue (mBAMs), and muscle force and fatigue were measured as described above. […] Every 24 hours, fresh biguanide was added in fresh medium and tetanic force measured for a total of 3-4 days.

Bounds are passed on as bounds.

With `CN(C)C(=N)NC(=N)N` [metformin, 1,1-dimethylimido-dicarbonimidic diamide], the “concentration that significantly increased maximal tetanic force generated by mBAM muscle tissue” value in test [1] was determined as 0.0006 µg/mL. Moreover, in test [2] (3-4 days of exposure, FIGS. 5A-5B), the “concentration that increased tetanic force generated by the muscle tissue” value came to 0.0006 µg/mL. Further, the “effect on the rate of muscle fatigue with repetitive stimulations” value (“effect on the rate of muscle fatigue” for short) in test [3] was “decreased the rate of muscle fatigue”. In addition, the “concentration that significantly decreased the rate of muscle fatigue” value in test [4] is 0.000001 µg/mL.
For the molecule `CCCCNC(=N)NC(=N)N` [buformin, Buformin], in test [3], the “effect on the rate of muscle fatigue” value is listed as “decreased the rate of muscle fatigue”. Besides, the “concentrations that increased tetanic force generated by the muscle tissue” value in test [5] is “less than 0.1 μg/ml”.
Consider `N=C(N)NC(=N)NCCc1ccccc1` [phenformin, Phenformin], for which the “effect on the rate of muscle fatigue” value in test [3] was “decreased the rate of muscle fatigue”.
As for `CC(C)NC(=N)NC(=N)Nc1ccc(Cl)cc1` [proguanil, 1-(4-chlorophenyl)-5-isopropyl-biguanide], the “concentration that significantly increased tetanic force” value in test [2] (after 3 days of treatment, FIG. 5C) was 0.001 µg/mL. Further, the “concentrations that increased tetanic force generated by the muscle tissue” value in test [6] was at most 0.00006 µg/mL; in test [5], “less than 0.0001 μg/ml”.

These data come from patent publication US20130217778A1, “METHODS AND COMPOSITIONS FOR THE IMPROVEMENT OF SKELETAL MUSCLE FUNCTION IN A MAMMAL” (priority 2010, published 2013).
